Results reported in US7517857B2, “Immune-modulating peptide” (POSCO, priority 2002, dated 2009).
Where a SMILES comes first, the peptide text is derived from it. [ ]: non-standard residue; d: D form.

How the values were obtained:
[1] = test system: CT26, colon carcinoma; experiment: Tumor growth in CT26-injected Balb/c mice; assay type: in vivo; settings: FIGS. 9A and 9B
Method: CT26, EL4 were maintained at 37° C. in a humidified 5% CO2 atmosphere in RPMA1640 medium supplemented with 20% (vol/vol) heat-inactivated fetal bovine serum. For animal experiments, the cells were passaged two to five times after re-growth from frozen stocks. Log phase CT26 cells were detached from tissue culture flasks with 0.25% trypsin and 0.03% EDTA. CT26 and EL4 were washed and resuspended in PBS immediately before injection.
In order to assess the antitumor effect of immuno-modulating peptide, Trp-Arg-Tyr-Met-Val-D-Met-CONH2, (WRYMVm; (SEQ ID NO: 4)), CT26, colon carcinoma was tested in Balb/c mice model. Tumor mass was measured in size every two days after 6 days from tumor cell inoculation.
To find the effective tumor-suppressing dose of WRYMVm, 0.1 μg/mouse, 0.25 μg/mouse, and 1 μg/mouse of WRYMVm were administered to CT26/Balb/c model. […] A similar phenomenon is easily found in chemotactic migration of leukocytes. In view of the fact that FPRL1, which is a target receptor for WRYMVm, is related to the chemotactic migration event, it is concluded that WRYMVm-induced antitumor effect might be derived from leukocyte infiltration event. Therefore, it is quite necessary to reveal the direct relationship between the WRYMVm-induced antitumor effect and the leukocyte infiltration event.

[2] = target: T1, FPRL1 (Homo sapiens, UniProt P25090); experiment: Akt phosphorylation in FPRL1-expressing RBL-2H3 cells (immunoblot); assay type: cell-based; settings: 10 μM peptides 5 min (WKYMVm time course 1 μM)
T1 construct: expressed in transfected cells; host or cells: RBL-2H3 (rat basophilic leukemia) cells, G418-selected
T1 sequence (P25090 1-351): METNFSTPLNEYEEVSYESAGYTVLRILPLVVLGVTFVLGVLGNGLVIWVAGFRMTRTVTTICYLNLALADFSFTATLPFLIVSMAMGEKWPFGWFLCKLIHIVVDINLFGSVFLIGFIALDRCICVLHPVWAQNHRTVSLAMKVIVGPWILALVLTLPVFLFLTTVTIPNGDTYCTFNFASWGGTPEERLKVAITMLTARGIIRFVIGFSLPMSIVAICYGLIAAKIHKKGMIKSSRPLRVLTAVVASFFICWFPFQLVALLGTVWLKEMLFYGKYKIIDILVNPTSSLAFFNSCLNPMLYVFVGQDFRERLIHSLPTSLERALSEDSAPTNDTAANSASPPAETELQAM
Method: It is well known that activation of chemoattractant receptors induces Akt activation via PI3K (19). Stimulation of cells with the peptides, electrophoresis and immunoblot analysis were performed according to the same method as in Example 5.
FPR- or FPRL1-expressing RBL-2H3 cells were stimulated with 1 μM WKYMVm for various periods of time (FIG. 4A). Two cells were preincubated with a vehicle or 100 ng/ml of PTX (24 hr), 50 μM of LY294002 (15 min), 5 μM of GFX (15 min), 10 μM BAPTA/AM (60min), or 50 μM PD98059 (60 min) prior to treatment with 1 μM of WKYMVm (FIG. 4B). FPR- and FPRL1-expressing RBL2H3 cells were stimulated with 10 μM of WKYMVm and the present peptides for 2 min or 5 min, respectively (FIG. 4C). Each sample (30 μg of protein) was subjected to 10% SDS-PAGE and phosphorylated Akt was determined by immunoblot analysis with an anti-phospho-Akt antibody. A western blot analysis with an anti-Akt antibody was performed to confirm that the same amounts of samples were used for the experiments. The results are shown FIGS. 4A to 4C. Results of FIGS. 4A to 4C are the representative of 3 independent experiments.

Row | Structure (SMILES) | tumor growth in CT26-injected mice (figure legend) [1] | Akt phosphorylation [2]
1 | CSCC[C@H](NC(=O)[C@H](CCCNC(=N)N)NC(=O)[C@H](CCCCN)NC(=O)[C@@H](N)Cc1c[nH]c2ccccc12)C(=O)N[C@H](C(=O)N[C@H](CCSC)C(N)=O)C(C)C [WKRMVm-NH2, Trp-Lys-Arg-Met-Val-D-Met-NH2] (H-WKRMV[dM]-NH2; N-terminus assumed) | attenuates tumor growth | 
2 | CSCC[C@H](NC(=O)[C@H](Cc1ccc(O)cc1)NC(=O)[C@H](CCCCN)NC(=O)[C@@H](N)Cc1c[nH]c2ccccc12)C(=O)N[C@H](C(=O)N[C@H](CCSC)C(N)=O)C(C)C [WKYMVm-NH2, Trp-Lys-Tyr-Met-Val-D-Met-NH2, reference compound] |  | stimulated Akt phosphorylation
